In US20130137767A1, “Methods and Compositions for Treating Arthritis with Docosahexaenoic Acid” (DSM IP ASSETS B.V., priority 2010, published 2013):

How the values were obtained:
[1] = tested on: Collagen-Induced Arthritis (CIA); test: Collagen-Induced Arthritis, ethyl esters (CIA-EE, Example 1): clinical arthritis severity and incidence; type: in vivo, Male DBA/1O1aHsd mice; settings: for arthritis severity score as area under the curve (AUC): days 18-45, FIG. 2; for incidence of disease (clinical arthritis score greater than 0): day 45
Excerpt: The anti-arthritic activity of DHA, DPAn6, DHA/DPAn6 (DHA S-oil ratio) and DHA/EPA (fish oil ratio) ethyl esters (EE) in a chronic mouse model of inflammation, Collagen-Induced Arthritis (CIA), was studied.
(§1) Male DBA/1O1aHsd mice (3.5-4 weeks of age) were randomized by weight and enrolled in the study after a three day quarantine in which animals were fed the AlN-93G diet with a modified base fat: 1 part flax seed oil (flax), 9 parts hydrogenated coconut oil (HCOC) and 21 parts high-oleic safflower oil (HO-SAFF). 15 animals were enrolled per study group, with the exception of the No Disease control that had 4 animals. Study groups consisted of:
(§2) The appropriate ethyl esters were blended into the base diet to provide approximately 2500 and 5000 mg/kg polyunsaturated fatty acid (PUFA) per day. The human equivalent doses (HED) were approximately 12 g/day and 22 g/day, respectively. The 2500 mg/kg EE diets contained the following fat blend: 1 part flax, 12 parts HCOC and 23 parts HO-SAFF. The 5000 mg/kg EE diets contained a fat blend consisting of: 1 part flax, 5 parts HCOC and 20 parts HO-SAFF. All study diets provided a total of 7% fat. Animals were fed study diets for approximately 30 days prior to the first collagen injection at day 0 and remained on the diets until study termination (day 45). Animals in the No Disease control and Dexamethasone groups were fed the diet containing OA-EE. Following a second collagen injection on day 21, arthritis severity was scored daily. Blood samples were collected at day 21 and day 45. Joints, 6 per an animal, were collected for histology and pathology on day 45.
Data was analyzed and compared by one-way ANOVA using the Bonferroni post-test to compare treatment groups to respective placebo control and to make comparisons between treatment groups (GraphPad, Prism, Version 4.0). Effects were considered to be statistically significant at p<0.05.
Arthritis severity was assessed from day 18 to 45; a score of 0 represented an animal devoid of clinical arthritis symptoms and a score of 5 represented advanced clinical arthritis. Scores from 0-5 (most severe) were assigned to each digit on the fore and hind limbs based on erythema, swelling and mobility and the mean arthritis severity per animal was determined.
The incidence of disease was reduced in animals treated with DHA-EE (FIG. 3A/B). A clinical arthritis score greater than 0 was considered diseased. The incidence of disease at day 45 was 13% in animals treated with 2500 mg/kg DHA-EE, as compared to 100% disease incidence in OA-EE (placebo) control animals.

[2] = tested on: Collagen-Induced Arthritis (CIA); test: CIA-EE (Example 1): paw, knee and six-joint histopathology; type: in vivo, Male DBA/1O1aHsd mice; settings: day 45, vs OA-EE placebo, FIG. 4
Excerpt: as §1, §2
Placebo-treated diseased animals had histopathology changes, consistent with those seen in type II collagen induced arthritis, in most joints, with scores ranging from normal to severe. Microscopic alteration included infiltration of synovium and periarticular tissue with neutrophils and mononuclear inflammatory cells (inflammation), marginal zone pannus and bone resorption and cartilage damage (proteoglycan loss, chondrocyte death and collagen matrix destruction). Four-paw, knee and joint parameters were assigned a quantitative score 0=normal, 1=minimal, 2=mild, 3=moderate, 4=marked, 5=severe and a total score was determined per animal.

| SMILES | arthritis severity score as area under the curve (AUC) ([1]; 2500 mg/kg, vs 2500 mg/kg OA-EE (placebo) control) | arthritis severity score as area under the curve (AUC) ([1]; 5000 mg/kg, vs 5000 mg/kg OA-EE (placebo) control) | incidence of disease (clinical arthritis score greater than 0) ([1]; 2500 mg/kg, FIG. 3A) | knee histopathology parameters ([2]; 2500 mg/kg) | paw histopathology parameters (inflammation, pannus, cartilage damage, bone damage) ([2]; 2500 mg/kg) | knee histopathology parameters ([2]; 5000 mg/kg) | paw histopathology parameters (inflammation, pannus, cartilage damage, bone damage) ([2]; 5000 mg/kg) | incidence of disease (clinical arthritis score greater than 0) ([1]; positive control, 0.1 mg/kg) |
| --- | --- | --- | --- | --- | --- | --- | --- | --- |
| CCCCC/C=C\C/C=C\C/C=C\C/C=C\C/C=C\CCC(=O)OCC [DPAn6-EE, reference compound] | did not reduce arthritis | did not reduce arthritis | 100% | did not significantly improve | did not significantly affect | did not significantly improve | did not significantly affect |  |
| C[C@@H]1C[C@H]2[C@@H]3CCC4=CC(=O)C=C[C@]4(C)[C@@]3(F)[C@@H](O)C[C@]2(C)[C@@]1(O)C(=O)CO [Dexamethasone, reference compound] |  |  |  |  |  |  |  | 60% |
